Reference: article PMC9481026 (PLoS ONE, 2022)
≈ marks a conversion by molar mass, not a printed value. Like-named read-outs stand apart in the source and are kept apart here.

How the values were obtained:
[1] = system: RVFV MP-12; experiment: microbe, parasite or virus in culture; assay type: cell-based, Rift Valley fever virus; details: read-out: Estimated EC50
[2] = biological target: T1, Human RNase H1 (Homo sapiens, UniProt O60930); experiment: biochemical
T1 construct: made in house; host or cells: E. coli
T1 sequence (O60930 1-286): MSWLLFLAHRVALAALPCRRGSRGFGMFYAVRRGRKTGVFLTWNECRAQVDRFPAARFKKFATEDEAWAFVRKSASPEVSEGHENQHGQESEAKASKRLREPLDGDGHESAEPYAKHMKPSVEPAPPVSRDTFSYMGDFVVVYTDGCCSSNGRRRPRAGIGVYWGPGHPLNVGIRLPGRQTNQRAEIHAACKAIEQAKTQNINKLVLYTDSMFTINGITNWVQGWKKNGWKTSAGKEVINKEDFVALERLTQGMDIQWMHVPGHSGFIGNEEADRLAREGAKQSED

[3] = system: Vero cells
[4] = system: C. neoformans; experiment: microbe, parasite or virus in culture; assay type: cell-based; details: for MIC80: Cryptococcus neoformans, read-out: C. neoformans (MIC80, μM)
[5] = system: RVFV strain MP-12; experiment: microbe, parasite or virus in culture; assay type: cell-based, Rift Valley fever virus
[6] = system: HepDES19
[7] = system: Staphylo-coccus spp.; experiment: organism not typed; assay type: cell-based
[8] = system: A549 cells
[9] = system: RVFV strain MP-12; experiment: microbe, parasite or virus in culture; assay type: cell-based, Rift Valley fever virus; details: read-out: A549 EC50
[10] = system: ZIKV; experiment: microbe, parasite or virus in culture; assay type: cell-based, Zika virus; details: read-out: ZIKV EC50
[11] = system: LACV; experiment: microbe, parasite or virus in culture; assay type: cell-based, La Crosse virus; details: read-out: LACV EC50
[12] = in vitro; details: African green monkey, CC50
[13] = read-out: Human RNase H1 (IC50)
[14] = Rift Valley fever virus, Vero, 24 h

Molecule `CCOC(=O)c1sc(NC(=O)CSc2nnc(Cc3ccccc3)o2)c(C#N)c1C` [Compound 6] has an EC50 [1] of over 120 µM.

Work on `O=c1c(O)c(-c2ccc(O)c(O)c2)oc2cc(O)c(O)c(O)c12` [Compound 7, Quercetagetin] yielded an EC50 ([1]; Rift Valley fever virus, Vero) of over 120 µM.

In the case of `NC(=O)c1c(N)sc2c1CCCCC2` [Compound 22], the EC50 [1] is reported as over 120 µM.

`CC(C)c1cccc(=O)c(O)c1` [Compound 47, β-thujaplicin, reference compound] showed an EC50 ([1]; Rift Valley fever virus, Vero) of over 120 µM.

With `CC(C)c1ccc(O)c(=O)cc1` [Compound 48, γ -thujaplicin, reference compound] the EC50 ([1]; Rift Valley fever virus, Vero) was over 120 µM.

With `Cc1cc(O)c(=O)c(O)cc1C(=O)c1ccccc1` [Compound 111] the IC50 [2, 13] was 48 µM, the CC50 [3] was over 120 µM and the “C. neoformans (MIC80, μM)” value [4] was 36 µM. It also gave an EC50 ([5]; read-out: RVFV (EC50)) of 19 µM.

In the case of `Cc1cc(O)c(=O)c(O)cc1-c1ccccc1` [Compound 113], the IC50 [2, 13] is reported as 174 µM, the CC50 [3] is reported as over 120 µM and the “C. neoformans (MIC80, μM)” value [4] is reported as 24 µM. For the same molecule, the EC50 ([5]; read-out: RVFV (EC50)) was 10.3 µM.

In the case of `Cc1cc(O)c(=O)c(O)cc1C(=O)c1ccc(-c2ccccc2)cc1` [Compound 118], the IC50 [2, 13] is reported as over 500 µM, the CC50 [3] is reported as over 120 µM and the “C. neoformans (MIC80, μM)” value [4] is reported as 15 µM. The EC50 ([5]; read-out: RVFV (EC50)) was 11 µM.

For `Cc1cc(O)c(=O)c(O)cc1C(=O)C1CCCCC1` [Compound 120], the IC50 [2, 13] was 81 µM, the CC50 [3] was over 120 µM and the “C. neoformans (MIC80, μM)” value [4] was 12 µM. It also gave an EC50 ([5]; read-out: RVFV (EC50)) of 15.6 µM.

Molecule `O=C(O)CC(=O)CC(=O)c1cccs1` [Compound 129] has an EC50 [1] of over 120 µM.

For `O=C1c2ccccc2C(=O)N1O` [Compound 138], the EC50 [1] was over 120 µM.

`COC(=O)c1c(C)cc(O)c(=O)c(O)c1O` [Compound 196] gave an IC50 [2, 13] of 408 µM, a CC50 [3] of over 120 µM and a CC50 [6] of 6 µM. For the same molecule, the “Staphylo-coccus spp. (MIC80, μM)” value [7] was 67 µM and the EC50 ([5]; read-out: RVFV (EC50)) was 23.9 µM.

Work on `CC1=CC(O)N(O)C(O)=C1C(C)=Nc1ccccc1N` (stereo not drawn) [Compound 208] yielded an IC50 [2, 13] of 194 µM, an EC50 [1] of 14 µM and a CC50 [3] of over 120 µM. The CC50 [6] was 14.4 µM, the “C. neoformans (MIC80, μM)” value [4] was 30 µM and the EC50 ([5]; read-out: RVFV (EC50)) was over 120 µM.

Work on `Cc1ccc(O)c(=O)c(O)c1` [Compound 210] yielded an IC50 [2, 13] of 85 µM, an EC50 [1] of 8 µM and a CC50 [3] of over 120 µM. The “C. neoformans (MIC80, μM)” value [4] was 15 µM and the EC50 ([5]; read-out: EC50) was 11.8 µM.

In the case of `Cc1cc(O)c(=O)c(O)cc1-c1cccc(-c2cccc3ccccc23)c1` [Compound 234], the EC50 [1] is reported as 19 µM and the CC50 [3] is reported as over 120 µM.

Work on `Cc1cc(O)c(=O)c(O)cc1C(=O)c1ccc(-c2ccncc2)cc1` [Compound 260] yielded an IC50 [2, 13] of 277 µM, a CC50 [3] of over 120 µM and a CC50 [6] of 45 µM. The “C. neoformans (MIC80, μM)” value [4] was 50 µM and the EC50 ([5]; read-out: RVFV (EC50)) was 31.6 µM.

With `O=c1c(O)ccc(-c2ccco2)cc1O` [Compound 265] the IC50 [2, 13] was 57 µM, the CC50 [3] was over 120 µM and the “Staphylo-coccus spp. (MIC80, μM)” value [7] was 30 µM. The “C. neoformans (MIC80, μM)” value [4] was 11 µM and the EC50 ([5]; read-out: RVFV (EC50)) was 15.4 µM.

`O=C1C=CC(=O)c2ccccc21` [Compound 327] gave a CC50 [8] of 27.5 µM, an IC50 [2, 13] of 47 µM and an EC50 [1] of 2 µM. For the same molecule, the EC50 [9] was 19.6 µM, the EC50 [10] was over 120 µM and the EC50 [11] was 12.7 µM. For the same molecule, the CC50 [6] was 18.5 µM, the “C. neoformans (MIC80, μM)” value [4] was 9.1 µM and the EC50 ([5]; read-out: EC50) was 39.7 µM. For the same molecule, the EC50 ([5]; read-out: Vero EC50) was 39.7 µM.

Work on `COC(=O)c1c(C)cc(O)c(=O)c(O)c1Br` [Compound 335] yielded a CC50 [8] of 96.2 µM, an IC50 [2, 13] of 111 µM and an EC50 [1] of 3 µM. It also gave an EC50 [9] of over 120 µM, a CC50 [3] of over 120 µM and an EC50 [10] of over 120 µM. For the same molecule, the EC50 [11] was over 120 µM, the “C. neoformans (MIC80, μM)” value [4] was 50 µM and the EC50 ([5]; read-out: EC50) was 40.8 µM. For the same molecule, the EC50 ([5]; read-out: RVFV (EC50)) was 40.8 µM and the EC50 ([5]; read-out: Vero EC50) was 40.8 µM.

Molecule `Cc1cc(O)c(=O)c(O)cc1S(=O)(=O)c1ccccc1` [Compound 336] has an IC50 [2] of 85 µM, an EC50 ([1]; Rift Valley fever virus, Vero) of 3 µM and a CC50 [12] of 70 µM. The CC50 ([3]; African green monkey) was 65.8 µM, the MIC80 [4] was 50 µM (≈ 14.6 µg/mL) and the EC50 [5, 14] was 9 µM.

`Cc1ccc(/C=C/C(=O)c2ccccc(=O)c2O)cc1` [Compound 340] gave an IC50 [2, 13] of over 500 µM, an EC50 [1] of 3 µM and a CC50 [3] of 70 µM. For the same molecule, the CC50 [6] was 18.7 µM, the “C. neoformans (MIC80, μM)” value [4] was 49 µM and the EC50 ([5]; read-out: EC50) was 27.3 µM.

For `O=C(/C=C/c1cccc(Br)c1)c1ccccc(=O)c1O` [Compound 341], the IC50 [2] was over 500 µM, the EC50 ([1]; Rift Valley fever virus, Vero) was 2 µM and the CC50 [12] was over 120 µM. For the same molecule, the MIC80 ([7]; read-out: Staphylo-coccus spp. (MIC80, μM)) was 44 µM (≈ 14.6 µg/mL), the MIC80 [4] was 24 µM (≈ 7.95 µg/mL) and the EC50 [5, 14] was 25.2 µM.
